Patent US8853264B2, “Use of lignan compounds for treating or preventing inflammatory disease” (Newtree Industry Co., Ltd., priority 2005, dated 2014)

Legend:
[1] = system: edemas of the rat ears induced by TPA; assay: TPA-induced rat ear edema inhibition test; format: in vivo, Wistar rats; conditions: for Edema thickness: topical in acetone 30 min after TPA, measured after 8 hours
Procedure: The anti-inflammatory activity of the lignan compound isolated and purified in <Example 1> was tested in animal models. The anti-inflammatory activity was measured by edema inhibition test on rats. As the test animals, 5-week-old Wistar rats (DaeHan Biolink Co., Ltd, Korea) were used. The animals were provided with standard pellet forming rat feed (Cheiljedang Corporation, Korea) and given freely to feed and water. Also, the animals were housed in conditions of 12-hr light/12-hr dark cycle, temperature of 25±2° C. and humidity of 60±10%. Inflammation inducing agent TPA (12-O-tetradecanoylphorbol-13-acetate; Sigma) was dissolved in acetone to a concentration of 200 μg/mL. The edemas of the rat ears were induced by applying the TPA solution locally to each of the outer and inner faces of the ear in an amount of 10 μl/ear (4 μg/ear). The macelignan purified in <Example 1> and non-steroidal anti-inflammatory drug indomethacin as a control substance were dissolved in acetone and used in amounts of 20, 200 and 2000 μg/ear. Each of the macelignan and the indomethacin was applied locally to the rat ears at 30 minutes after treatment with TPA. A control group was locally applied with acetone. The thickness of the rat ears was measured with a caliper 8 hours after treatment with each of the substances. An increase in the ear thickness in the group treated with the sample was compared to that of the group untreated with the sample, and inflammation inhibitory effect was measured by calculating percent edema inhibition.

[2] = Skin barrier recovery test (TEWL, skin hydration, erythema index), atopic dermatitis model; format: in vivo, NC/Nga mice
Procedure: 8-week-old NC/Nga mice (20-25 g) were purchased from Chungang Lab. Animal. After adapting for 1 week, the NC/Nga mouse was anesthetized with 90% ethyl ether (Ducsan, Korea) and hair was removed from the occipital region and the back of the mouse using depilatory cream (Reckitt Benckiser, France). After allowing micro wound healing for a day, 100 mg of mite antigen cream (Biostir, Inc. Japan) comprising Dermatophagoides farina, which causes atopic dermatitis, as a main ingredient was evenly applied on the ear, occipital region and back, 3 times a week (for 5 weeks, from week 9 to week 13). 2 hours before application of the mite antigen cream, 4% SDS solution was applied at the same area to increase transdermal absorption of the mite antigen cream by inducing the breakdown of skin fats and cuticle layer. From week 3 following the application, IgE value was measured to quantitate the degree of atopic dermatitis. Also during the drug treatment period (week 12 to week 13), 100 mg of the mite antigen cream was applied 3 times a week to prevent spontaneous healing of the atopic dermatitis.
In order to induce atopic dermatitis, 100 mg of mite antigen cream was applied on the ear, occipital region and back of NC/Nga mouse (9 to 11 weeks old), except for the negative control group, 3 times a week, 2 hours after the application of 4% SDS solution. Three weeks later, it was observed whether atopic dermatitis was induced by checking skin rash, erythema, cornification, or the like. Atopic dermatitis was induced in all groups except for the negative control group. For drug treatment and evaluation of therapeutic effect, mice were grouped into 12 groups, 6 oral administration groups and 6 topical application groups (each consisting of negative control group, positive control group, macelignan low conc. group, macelignan high conc. group, nutmeg extract low conc. group, and nutmeg extract high conc. group), with n=5 per cage. During the following drug treatment and evaluation period of 2 weeks (12 to 13 weeks old), the negative control groups, which had not been treated with 4% SDS solution and mite antigen cream, were treated with physiological saline (oral administration group) or base cream (topical application group) every day, and the positive control groups, which had been treated with 100 mg of mite antigen cream 2 hours after application of 4% SDS solution, 3 times every week, were treated with physiological saline (oral administration group) or base cream (topical application group). The oral administration groups were treated with 100 mg of mite antigen cream 2 hours after application of 4% SDS solution, 3 times every week, and were treated with macelignan or nutmeg extract at low concentration (50 mg/kg/day) or high concentration (150 mg/kg/day) every day. The topical application groups were treated with 100 mg of mite antigen cream 2 hours after application of 4% SDS solution, 3 times every week, and were treated with macelignan cream or nutmeg extract cream at low concentration (20 mg/kg/day) or high concentration (60 mg/kg/day) every day. Transepidermal water loss (TEWL), skin hydration and erythema index were measured one day before the end of the test. Serum was obtained by retro-orbital blood sampling. After the end of the test (14 weeks old) spleen and skin tissues from occipital region and back were sampled and stored at −70° C. ALN (axillary lymph node) was stored in DMEM containing 2% FBS (fetal bovine serum). The skin tissues were stored in 10% formalin solution.
One day before the end of the experiment, TEWL, skin hydration and erythema index were measured to quantitatively compare recovery of skin barrier. TEWL was measured with a tewameter (TM300), skin hydration with a corneometer (CM825), and erythema index with a mexameter (MX18).

RAW264.7 cells = assay: MTT cytotoxicity assay on RAW264.7 cells; format: cell-based; conditions: macelignan 1-20 μM, 24 hours
Procedure: In order to examine the effect of macelignan obtained in <Example 1> on the production of inflammatory response mediators, the macrophage RAW264.7 cell line was used. The macrophage RAW264.7 cell line (ATCC TIB-71) was purchased from American Tissue Culture Collection (Rockville, Md., USA). The cell line was cultured in DMEM (Dulbecco's Modified Eagle's Medium, Gibco, USA) supplemented with 10% heat inactivated FBS (fetal bovine serum, Gibco, USA), 100 U/ml penicillin G and 100 μg/ml streptomycin, in a 5% CO2 incubator at 37° C. In order to examine the effect of the inventive macelignan on the viability of RAW 264.7 cells, analysis was performed based on the reduction of MTT changed into a purple formazan product by mitochondrial dehydrogenase (Hayon T. et al., Leuk. Lymphoma. 44(11): 1957-1962, 2003). 1×10^6 cells/ml of RAW264.7 cells were inoculated into RPMI 1640 medium, and after 6 hours, were treated with the inventive macelignan at concentrations up to 1-80 μM/ml. After 24 hours, the viability of the cells was measured by the MTT assay.

[3] = oral administration 50 mg/kg/day
[4] = oral administration 150 mg/kg/day
[5] = oral administration 50 and 150 mg/kg, p<0.01
[6] = topical application 20 mg/kg/day
[7] = topical application 60 mg/kg/day
[8] = topical application 20 and 60 mg/kg, p<0.01

COc1cc(C[C@H](C)[C@H](C)Cc2ccc3c(c2)OCO3)ccc1O (single isomer, unassigned) [macelignan]
Edema inhibition ([1]; dose 20 μg/ear): 36.7% | Edema thickness ([1]; dose 20 μg/ear): 157 ± 9 μm | Edema inhibition ([1]; dose 200 μg/ear): 60.5% | Edema thickness ([1]; dose 200 μg/ear): 98 ± 6 μm | Edema inhibition ([1]; dose 2000 μg/ear): 79.0% | Edema thickness ([1]; dose 2000 μg/ear): 52 ± 4 μm | percent edema inhibition compared with indomethacin ([1]; local application on rat ears): higher than that of currently commercially available anti-inflammatory drug indomethacin | rat edema induced by TPA (result in words) ([1]; local application on rat ears): inhibited the formation of edema in a concentration-dependent manner | Erythema Index [2, 3]: 198.5 ± 46.8 | Skin Hydration [2, 3]: 5.0 ± 0.8 AU | TEWL [2, 3]: 17.6 ± 8.1 g/hr · m^2 | Erythema Index [2, 4]: 190 ± 24.4 | Skin Hydration [2, 4]: 6.4 ± 2.8 AU | TEWL [2, 4]: 21.5 ± 9.2 g/hr · m^2 | skin hydration compared to the positive control group ([2]; oral administration 50 and 150 mg/kg): effect of increasing skin hydration | TEWL compared to the positive control group [2, 5]: statistically significant effect of suppressing TEWL | erythema index compared to the positive control group [2, 5]: statistically significant effect of decreasing erythema index | Erythema Index [2, 6]: 163.3 ± 4.0 | Skin Hydration [2, 6]: 12.4 ± 3.9 AU | TEWL [2, 6]: 25.8 ± 3.1 g/hr · m^2 | Erythema Index [2, 7]: 190 ± 24 | Skin Hydration [2, 7]: 13.4 ± 4.7 AU | TEWL [2, 7]: 26.2 ± 4.9 g/hr · m^2 | TEWL compared to the positive control group [2, 8]: statistically significant effect of suppressing TEWL | erythema index compared to the positive control group [2, 8]: statistically significant effect of decreasing erythema index | skin hydration compared to the positive control group [2, 8]: statistically significant effect of increasing skin hydration | viability of the RAW264.7 cells (RAW264.7 cells): no significant effect
